The source made the active and inactive calls. No cut-off for these calls is given here.

Broadly, the inhibition is the change of the read-out against control, counted positive when it falls.

For data set [1], the system named is Solanum tuberosum. Put plainly: Phytotoxicity against Solanum tuberosum cv. Desiree (potato) leaves at 1000 uM. The format is organism-based. As to conditions: in vivo.
Data set [2] has as its system Phytophthora infestans. Put plainly: Antioomycete activity against Phytophthora infestans isolate 208m2 infected potato plants assessed as decrease in fungal biomass at 100 uM applied on the abaxial leaf surface 2 hr prior to zoospore inoculation measured 3 days after fungal challenge by realtime PCR analysis. The format is functional.
In data set [3] the test system is Phytophthora infestans. Briefly: Antioomycete activity against Phytophthora infestans isolate 208m2 infected potato plants assessed as decrease in fungal biomass at 10 uM applied on the abaxial leaf surface 2 hr prior to zoospore inoculation measured 3 days after fungal challenge by realtime PCR analysis. The data set is classed as functional.
The test system of data set [4] is Colletotrichum coccodes. Briefly: Fungicidal activity against Colletotrichum coccodes CBS 369.75 assessed as one-day-old mycelial growth inhibition at 1 uM measured every 24 hr by multiwell plate assay. As to conditions: CBS 369.75, 24 h, read-out: GI. The format is functional.
The test system of data set [5] is Phytophthora infestans. Put plainly: Antioomycete activity against Phytophthora infestans isolate 208m2 assessed as zoospore germination at 1 uM after 24 hr by light microscopy. The data set is classed as functional.
For data set [6], the system named is Phytophthora infestans. Briefly: Antioomycete activity against Phytophthora infestans isolate 208m2 assessed as inhibition of zoospore germination at 100 nM after 24 hr by light microscopy. The data set is classed as functional. Particulars: isolate 208m2, 24 h.
In data set [7] the test system is Colletotrichum coccodes. Put plainly: Fungicidal activity against Colletotrichum coccodes CBS 369.75 assessed as one-day-old mycelial growth inhibition at 100 uM measured every 24 hr by multiwell plate assay. The format is functional, organism-based.
Data set [8] relates to Colletotrichum coccodes. Put plainly: Fungicidal activity against Colletotrichum coccodes CBS 369.75 assessed as one-day-old mycelial growth inhibition at 0.01 uM measured every 24 hr by multiwell plate assay. The format is functional, organism-based.
Data set [9] deals with Phytophthora infestans. Briefly: Antioomycete activity against Phytophthora infestans isolate 208m2 expressing GFP assessed as mature (3-weeks-old) mycelial growth inhibition at 1 to 100 uM applied as a drop solution measured after 24 hr by fluorescence stereomicroscopic analysis. The data set is classed as functional, organism-based.
For data set [10], the system named is Phytophthora infestans. Put plainly: Antioomycete activity against Phytophthora infestans isolate 208m2 expressing GFP assessed as one-day-old mycelial growth inhibition at 1 mM by plate reader analysis. The data set is classed as functional, organism-based.
Data set [11] relates to Phytophthora infestans. Put plainly: Antioomycete activity against Phytophthora infestans isolate 208m2 assessed as lysis of zoospores at 100 uM after 24 hr by light microscopy. The data set is classed as functional, organism-based.
Data set [12] concerns Phytophthora infestans. Briefly: Antioomycete activity against Phytophthora infestans isolate 208m2 assessed as inhibition of zoospore germination at 3.7 uM after 24 hr by light microscopy. The format is functional, organism-based.
Data set [13] deals with Phytophthora infestans. Briefly: Antioomycete activity against Phytophthora infestans isolate 208m2 assessed as zoospore germtube length at 10 nM to 100 uM after 24 hr by light microscopy. The format is functional, organism-based.
The subject of data set [14] is Phytophthora infestans. Put plainly: Antioomycete activity against Phytophthora infestans isolate 208m2 assessed as inhibition of zoospore germination at 10 nM after 24 hr by light microscopy. The data set is classed as functional, organism-based.

On to `CCCCCCCCCCCCC(=O)/C=C/C(=O)[O-].[Na+]`, for which, in [1], the Activity result is “Non-toxic”. The inhibition at 100 µM in data set [2] is 95%. Further, the inhibition at 10 µM in data set [3] worked out at 80%.
Turning to `CCCCCCCCCCCCC(=O)/C=C/C(=O)O` [listing 1 of 2 here], the inhibition of growth at 1 µM in [4] was determined as 1.5%. The Activity in data set [5] is given as under 10%. The inhibition at 0.1 µM in data set [6] was over 50%.
For the molecule `CCCCCCCCCCCCC(=O)/C=C/C(=O)O` [listing 2 of 2 here], the “growth inhibition (GI)” value in data set [7], in [8], in data set [9] and in data set [10] was “Active” throughout. The outcome in [11] and in [13] was Active. For the same molecule, the inhibition result in data set [12] and in [14] was “Active” throughout.

Values taken from ChEMBL document CHEMBL3046922, “Antioomycete activity of gamma-oxocrotonate fatty acids against P. infestans” (J Agric Food Chem, 2009).
